The structures appear in SMILES notation.

This assay has as its system B16-F10 tumors. Description: In vivo study of B16-F10 tumors. More on the design: species or system C57BI/6 mice. How it is done:
B16-F10 tumor-bearing C57BI/6 mice were treated with vehicle or 20 mg/kg Compound 1 p.o. (daily from day 7-16) in combination with PBS or 10 μg ADU-S100 i.t. (on days 9, 11, 13, and 15).

Take `C[C@@H]1COCCN1c1cc(N2CCCC[C@@H]2C(F)(F)F)[nH]c(=O)c1` [Compound 1, 4-((R)-3-methylmorpholino)-6-((R)-2-(trifluoromethyl)piperidin-1-yl)pyridin-2(1H)-one]: the “sensitization of B16-F10 tumors to STING agonist treatment (tumor growth, survival)” value (C57BI/6 mice, 20 mg/kg Compound 1 p.o. daily day 7-16 with 10 μg ADU-S100 i.t. on days 9, 11, 13, 15) is “sensitized”. The mice survival entry (Renca and B16-F10 tumor-bearing mice, Compound 1 with STING agonist treatment) is on record as “significantly improved”.

The values are drawn from patent publication US20250127790A1, “COMBINATION THERAPY USING VPS34 INHIBITORS” (Deciphera Pharmaceuticals, LLC, priority 2021, published 2025).
